Assay results taken from doi:10.1101/2025.11.20.689572v1 (biorxiv, 2025).
pKi: −log10 of the molar value. Where two headings read alike, the source gives them in different places.

Legend:
[1] = biological target: T1, 5-HT1F (Homo sapiens, UniProt P30939); test: competitive radioligand binding, HEK293 membranes
T1 construct: gene HTR1F; full-length receptor; HEK293 cell membranes
Excerpt: competitive radioligand binding, HEK293 membranes on 5-HT1F

[2] = biological target: T2, CHRM5 (Homo sapiens, UniProt P08912); test: cell-based; set-up: species or system HEK293; BRET1 beta-arrestin2 recruitment, receptor-RLuc8 and mVenus-beta-arrestin2 with GRK2; conditions: Assay=barr2, agonist mode, % of control agonist
T2 sequence (P08912 1-532): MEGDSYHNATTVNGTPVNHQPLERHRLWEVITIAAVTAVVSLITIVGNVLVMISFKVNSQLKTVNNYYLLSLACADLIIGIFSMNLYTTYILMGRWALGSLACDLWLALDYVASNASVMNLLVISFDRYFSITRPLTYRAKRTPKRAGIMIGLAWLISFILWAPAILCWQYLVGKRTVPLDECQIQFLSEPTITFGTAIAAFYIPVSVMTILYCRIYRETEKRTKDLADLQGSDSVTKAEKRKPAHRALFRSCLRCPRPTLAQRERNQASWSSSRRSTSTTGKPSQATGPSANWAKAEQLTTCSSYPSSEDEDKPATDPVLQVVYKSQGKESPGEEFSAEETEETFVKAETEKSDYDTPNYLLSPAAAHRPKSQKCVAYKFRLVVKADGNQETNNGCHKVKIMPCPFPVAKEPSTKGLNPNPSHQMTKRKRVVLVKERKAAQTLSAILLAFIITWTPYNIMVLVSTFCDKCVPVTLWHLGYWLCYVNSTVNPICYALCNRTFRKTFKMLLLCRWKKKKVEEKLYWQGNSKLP
Excerpt: (§1) BRET1 assays followed prior methods.

[3] = biological target: T3, CHRM1 (Homo sapiens, UniProt P11229); test: cell-based; set-up: species or system HEK293; BRET1 beta-arrestin2 recruitment, receptor-RLuc8 and mVenus-beta-arrestin2 with GRK2; conditions: Assay=barr2, agonist mode, % of control agonist
T3 sequence (P11229 1-460): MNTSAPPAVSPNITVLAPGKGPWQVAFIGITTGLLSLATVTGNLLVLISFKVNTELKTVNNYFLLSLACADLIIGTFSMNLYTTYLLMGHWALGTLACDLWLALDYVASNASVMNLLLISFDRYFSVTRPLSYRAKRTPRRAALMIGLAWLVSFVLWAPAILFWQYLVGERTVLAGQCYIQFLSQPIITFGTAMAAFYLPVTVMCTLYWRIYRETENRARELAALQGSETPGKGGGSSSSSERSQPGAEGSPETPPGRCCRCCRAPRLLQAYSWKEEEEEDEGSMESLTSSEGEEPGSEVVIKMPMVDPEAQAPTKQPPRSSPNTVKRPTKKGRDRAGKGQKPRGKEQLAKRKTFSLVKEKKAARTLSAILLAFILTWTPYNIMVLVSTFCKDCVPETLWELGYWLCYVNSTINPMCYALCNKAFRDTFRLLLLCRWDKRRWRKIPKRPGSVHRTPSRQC
Excerpt: as §1

[4] = biological target: T4, CHRM4 (Homo sapiens, UniProt P08173); test: cell-based; set-up: species or system HEK293; BRET1 beta-arrestin2 recruitment, receptor-RLuc8 and mVenus-beta-arrestin2 with GRK2; conditions: Assay=barr2, agonist mode, % of control agonist
T4 sequence (P08173 1-479): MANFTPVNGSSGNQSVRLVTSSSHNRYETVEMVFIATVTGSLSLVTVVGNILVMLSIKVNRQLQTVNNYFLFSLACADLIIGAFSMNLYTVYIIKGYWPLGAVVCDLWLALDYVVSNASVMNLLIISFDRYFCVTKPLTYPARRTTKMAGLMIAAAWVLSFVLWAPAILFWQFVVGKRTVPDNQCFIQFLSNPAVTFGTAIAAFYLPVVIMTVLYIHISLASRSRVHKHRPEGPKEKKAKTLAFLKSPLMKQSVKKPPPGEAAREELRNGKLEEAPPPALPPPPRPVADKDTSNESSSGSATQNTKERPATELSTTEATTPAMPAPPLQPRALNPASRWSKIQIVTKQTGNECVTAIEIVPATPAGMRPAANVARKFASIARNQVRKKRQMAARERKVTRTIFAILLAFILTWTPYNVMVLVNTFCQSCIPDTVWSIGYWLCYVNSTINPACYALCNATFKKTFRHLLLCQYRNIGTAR
Excerpt: as §1

[5] = biological target: T5, 5-HT1D (Homo sapiens, UniProt P28221); test: TRUPATH BRET2 G protein dissociation, HEK293; type: cell-based; conditions: HBSS, […] HEPES pH […] °C; agonist mode
T5 construct: gene HTR1D; full-length receptor; HEK293 with TRUPATH sensors (function)
T5 sequence (P28221 whole entry): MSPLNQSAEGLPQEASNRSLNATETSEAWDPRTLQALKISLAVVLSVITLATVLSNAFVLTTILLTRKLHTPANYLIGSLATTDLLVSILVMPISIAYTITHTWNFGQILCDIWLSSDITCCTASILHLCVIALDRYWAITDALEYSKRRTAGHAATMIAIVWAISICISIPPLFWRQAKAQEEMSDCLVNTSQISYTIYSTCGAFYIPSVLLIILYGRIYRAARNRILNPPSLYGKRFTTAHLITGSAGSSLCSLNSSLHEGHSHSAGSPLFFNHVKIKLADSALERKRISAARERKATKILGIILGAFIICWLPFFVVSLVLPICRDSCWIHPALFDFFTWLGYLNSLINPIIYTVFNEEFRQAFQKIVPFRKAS

[6] = biological target: α1A (Homo sapiens, UniProt P35348); test: competitive radioligand binding, HEK293 membranes; set-up: gene ADRA1A; full-length receptor; HEK293 cell membranes
α1A, sequence (P35348 whole entry): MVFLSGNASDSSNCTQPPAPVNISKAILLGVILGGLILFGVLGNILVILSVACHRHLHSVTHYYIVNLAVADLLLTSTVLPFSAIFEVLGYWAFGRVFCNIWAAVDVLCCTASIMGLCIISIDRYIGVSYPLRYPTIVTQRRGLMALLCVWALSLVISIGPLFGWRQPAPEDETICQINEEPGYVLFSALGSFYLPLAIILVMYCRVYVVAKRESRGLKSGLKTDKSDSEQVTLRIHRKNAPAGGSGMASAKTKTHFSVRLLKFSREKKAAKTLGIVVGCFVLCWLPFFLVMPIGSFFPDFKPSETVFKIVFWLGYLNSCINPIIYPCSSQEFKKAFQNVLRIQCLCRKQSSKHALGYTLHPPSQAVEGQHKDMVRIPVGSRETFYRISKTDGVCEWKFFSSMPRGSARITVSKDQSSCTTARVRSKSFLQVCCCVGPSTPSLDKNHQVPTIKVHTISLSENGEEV
Excerpt: competitive radioligand binding, HEK293 membranes on α1A

[7] = biological target: T6, α2B (Homo sapiens, UniProt P18089); test: competitive radioligand binding, HEK293 membranes
T6 construct: gene ADRA2B; full-length receptor; HEK293 cell membranes
T6 sequence (P18089 whole entry): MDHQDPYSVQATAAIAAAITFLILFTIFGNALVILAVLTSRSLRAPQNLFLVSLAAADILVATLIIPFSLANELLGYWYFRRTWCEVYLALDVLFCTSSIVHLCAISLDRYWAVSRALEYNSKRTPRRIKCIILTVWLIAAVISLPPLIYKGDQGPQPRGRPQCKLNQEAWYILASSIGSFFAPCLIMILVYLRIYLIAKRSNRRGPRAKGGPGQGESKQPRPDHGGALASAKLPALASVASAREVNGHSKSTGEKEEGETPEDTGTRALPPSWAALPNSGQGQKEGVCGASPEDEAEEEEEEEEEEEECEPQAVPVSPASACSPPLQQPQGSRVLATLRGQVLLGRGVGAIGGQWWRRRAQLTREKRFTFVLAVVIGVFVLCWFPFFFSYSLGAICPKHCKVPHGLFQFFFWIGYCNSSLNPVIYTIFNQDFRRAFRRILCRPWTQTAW
Excerpt: competitive radioligand binding, HEK293 membranes on α2B

[8] = biological target: T7, H2 (Homo sapiens, UniProt P25021); test: competitive radioligand binding, HEK293 membranes
T7 construct: gene HRH2; full-length receptor; HEK293 cell membranes
T7 sequence (P25021 whole entry): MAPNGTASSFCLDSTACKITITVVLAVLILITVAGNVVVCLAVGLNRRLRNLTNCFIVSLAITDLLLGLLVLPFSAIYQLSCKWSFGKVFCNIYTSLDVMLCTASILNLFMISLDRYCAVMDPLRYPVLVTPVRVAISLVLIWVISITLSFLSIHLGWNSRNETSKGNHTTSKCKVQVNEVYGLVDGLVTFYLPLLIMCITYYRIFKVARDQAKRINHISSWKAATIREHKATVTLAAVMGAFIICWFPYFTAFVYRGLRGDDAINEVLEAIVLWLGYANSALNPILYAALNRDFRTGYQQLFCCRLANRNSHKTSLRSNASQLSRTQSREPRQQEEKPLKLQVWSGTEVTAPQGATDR
Excerpt: competitive radioligand binding, HEK293 membranes on H2

[9] = biological target: β2 (Homo sapiens, UniProt P07550); test: competitive radioligand binding, HEK293 membranes; set-up: gene ADRB2; full-length receptor; HEK293 cell membranes
β2, sequence (P07550 whole entry): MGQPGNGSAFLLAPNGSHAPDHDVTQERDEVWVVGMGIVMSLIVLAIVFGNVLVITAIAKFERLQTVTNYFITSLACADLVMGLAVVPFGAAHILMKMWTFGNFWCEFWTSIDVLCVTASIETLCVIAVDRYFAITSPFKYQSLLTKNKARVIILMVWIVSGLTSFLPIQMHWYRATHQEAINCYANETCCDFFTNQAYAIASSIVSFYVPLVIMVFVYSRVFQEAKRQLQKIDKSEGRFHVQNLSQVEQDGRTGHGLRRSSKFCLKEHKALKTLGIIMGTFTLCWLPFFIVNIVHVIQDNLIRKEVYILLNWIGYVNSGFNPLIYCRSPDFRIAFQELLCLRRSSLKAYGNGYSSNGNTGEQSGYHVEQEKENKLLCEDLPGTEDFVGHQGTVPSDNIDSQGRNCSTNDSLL
Excerpt: competitive radioligand binding, HEK293 membranes on β2

[10] = HEK293, read-out: N-Desmethyl Xanomeline

T1 sequence (P30939 whole entry): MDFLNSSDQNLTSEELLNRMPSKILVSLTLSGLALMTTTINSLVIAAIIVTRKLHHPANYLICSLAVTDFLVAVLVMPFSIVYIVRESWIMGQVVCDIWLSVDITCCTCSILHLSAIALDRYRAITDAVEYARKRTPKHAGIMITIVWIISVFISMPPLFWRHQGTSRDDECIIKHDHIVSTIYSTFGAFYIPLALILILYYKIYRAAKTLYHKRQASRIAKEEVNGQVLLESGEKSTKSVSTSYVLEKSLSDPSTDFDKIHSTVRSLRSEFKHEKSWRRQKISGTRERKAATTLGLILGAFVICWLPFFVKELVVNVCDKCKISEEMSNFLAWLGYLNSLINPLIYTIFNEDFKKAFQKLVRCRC

SMILES | pKi [1] | Emax [2, 10] | Emax [3, 10] | Emax [4, 10] | EC50 [5] | pKi [6] | pKi [7] | pKi [8] | pKi [9] | Emax ([2]; HEK293, read-out: Xanomeline) | Emax ([3]; HEK293, read-out: Xanomeline) | Emax ([4]; HEK293, read-out: Xanomeline)
CCCCCCOc1nsnc1C1=CCCNC1 [N-desmethylxanomeline] | 6.65 | 16.9% | 71.3% | 20.5% | full or partial agonists at 5-HT1D and 5-HT1A in a transducer-dependent fashion | 6.55 | 6.47 | 5.99 | 6.08 | – | – | –
CCCCCCOc1nsnc1C1=CCCN(C)C1 [Xanomeline] | 6.12 | – | – | – | full or partial agonists at 5-HT1D and 5-HT1A in a transducer-dependent fashion | – | 6.50 | 6.46 | – | 27.2% | 73.2% | 29.1%
